Measured values from ChEMBL document CHEMBL3861944 (Medchemcomm, 2016).

Key:
[1] = Antioxidant activity assessed as DPPH free radical scavenging activity incubated for 30 mins in dark; format: functional
THP-1 [2] = assay: Pro-apoptotic activity in human THP1 cells assessed as early apoptotic cells at 0.5 uM after 24 hrs by annexin V/propidium iodide staining-based flow cytometric method (reference value: 0.4 +/- 0.1%); format: functional
THP-1 [3] = assay: Pro-apoptotic activity in human THP1 cells assessed as late apoptotic cells at 0.5 uM after 24 hrs by annexin V/propidium iodide staining-based flow cytometric method (reference value: 0.4 +/- 0.1%); format: functional
THP-1 [4] = assay: Pro-apoptotic activity in human THP1 cells assessed as early apoptotic cells at 0.75 uM after 24 hrs by annexin V/propidium iodide staining-based flow cytometric method (reference value: 0.4 +/- 0.1%); format: functional
THP-1 [5] = assay: Pro-apoptotic activity in human THP1 cells assessed as necrotic cells at 0.75 uM after 24 hrs by annexin V/propidium iodide staining-based flow cytometric method relative to control; format: functional
THP-1 [6] = assay: Pro-apoptotic activity in human THP1 cells assessed as late apoptotic cells at 3 uM after 24 hrs by annexin V/propidium iodide staining-based flow cytometric method (reference value: 0.4 +/- 0.1%); format: functional
THP-1 [7] = assay: Pro-apoptotic activity in human THP1 cells assessed as late apoptotic cells at 10 uM after 24 hrs by annexin V/propidium iodide staining-based flow cytometric method (reference value: 0.4 +/- 0.1%); format: functional
THP-1 [8] = assay: Pro-apoptotic activity in human THP1 cells assessed as necrotic cells at 10 uM after 24 hrs by annexin V/propidium iodide staining-based flow cytometric method relative to control; format: functional
THP-1 [9] = assay: Pro-apoptotic activity in human THP1 cells assessed as late apoptotic cells at 30 uM after 24 hrs by annexin V/propidium iodide staining-based flow cytometric method (reference value: 0.4 +/- 0.1%); format: functional
THP-1 [10] = assay: Pro-apoptotic activity in human THP1 cells assessed as necrotic cells at 30 uM after 24 hrs by annexin V/propidium iodide staining-based flow cytometric method relative to control; format: functional
ASPC1 [11] = assay: Pro-apoptotic activity in human AsPC1 cells assessed as early apoptotic cells at 1 uM after 24 hrs by annexin V/propidium iodide staining-based flow cytometric method (reference value: 0.8 +/- 0.1%); format: functional
ASPC1 [12] = assay: Pro-apoptotic activity in human AsPC1 cells assessed as necrotic cells at 10 uM after 24 hrs by annexin V/propidium iodide staining-based flow cytometric method (reference value: 2.1 +/- 0.4%); format: functional
ASPC1 [13] = assay: Pro-apoptotic activity in human AsPC1 cells assessed as necrotic cells at 30 uM after 24 hrs by annexin V/propidium iodide staining-based flow cytometric method (reference value: 2.1 +/- 0.4%); format: functional
ASPC1 [14] = assay: Pro-apoptotic activity in human AsPC1 cells assessed as necrotic cells at 75 uM after 24 hrs by annexin V/propidium iodide staining-based flow cytometric method (reference value: 2.1 +/- 0.4%); format: functional
ASPC1 [15] = assay: Pro-apoptotic activity in human AsPC1 cells assessed as late apoptotic cells at 100 uM after 24 hrs by annexin V/propidium iodide staining-based flow cytometric method (reference value: 0.8 +/- 0.1%); format: functional
[16] = Cell cycle arrest in human THP1 cells assessed as accumulation at S phase at 0.5 uM after 24 hrs by flow cytometric method (reference value: 16 +/- 2%); format: functional, cell-based; details: THP-1
[17] = Cell cycle arrest in human THP1 cells assessed as accumulation at G2/M phase at 0.75 uM after 24 hrs by flow cytometric method (reference value: 32 +/- 1%); format: functional, cell-based; details: THP-1
[18] = Cell cycle arrest in human THP1 cells assessed as accumulation at S phase at 1 uM after 24 hrs by flow cytometric method (reference value: 16 +/- 2%); format: functional, cell-based; details: THP-1
[19] = Cell cycle arrest in human THP1 cells assessed as accumulation at G2/M phase at 1 uM after 24 hrs by flow cytometric method (reference value: 32 +/- 1%); format: functional, cell-based; details: THP-1
[20] = Cell cycle arrest in human THP1 cells assessed as accumulation at G0/G1 phase at 3 uM after 24 hrs by flow cytometric method (reference value: 51 +/- 6%); format: functional, cell-based; details: THP-1
[21] = Cell cycle arrest in human THP1 cells assessed as accumulation at S phase at 3 uM after 24 hrs by flow cytometric method (reference value: 16 +/- 2%); format: functional, cell-based; details: THP-1
[22] = Cell cycle arrest in human THP1 cells assessed as accumulation at G2/M phase at 3 uM after 24 hrs by flow cytometric method (reference value: 32 +/- 1%); format: functional, cell-based; details: THP-1
[23] = Cell cycle arrest in human THP1 cells assessed as accumulation at S phase at 30 uM after 24 hrs by flow cytometric method (reference value: 16 +/- 2%); format: functional, cell-based; details: THP-1
[24] = Cell cycle arrest in human AsPC1 cells assessed as accumulation at G0/G1 phase at 1 uM after 24 hrs by flow cytometric method (reference value: 48 +/- 7%); format: functional, cell-based
[25] = Cell cycle arrest in human AsPC1 cells assessed as accumulation at G0/G1 phase at 10 uM after 24 hrs by flow cytometric method (reference value: 48 +/- 7%); format: functional, cell-based
[26] = Cell cycle arrest in human AsPC1 cells assessed as accumulation at G2/M phase at 10 uM after 24 hrs by flow cytometric method (reference value: 29 +/- 5%); format: functional, cell-based
[27] = Cell cycle arrest in human AsPC1 cells assessed as accumulation at G0/G1 phase at 30 uM after 24 hrs by flow cytometric method (reference value: 48 +/- 7%); format: functional, cell-based
[28] = Cell cycle arrest in human AsPC1 cells assessed as accumulation at G0/G1 phase at 50 uM after 24 hrs by flow cytometric method (reference value: 48 +/- 7%); format: functional, cell-based
[29] = Cell cycle arrest in human AsPC1 cells assessed as accumulation at S phase at 50 uM after 24 hrs by flow cytometric method (reference value: 23 +/- 3%); format: functional, cell-based
[30] = Cell cycle arrest in human AsPC1 cells assessed as accumulation at G2/M phase at 50 uM after 24 hrs by flow cytometric method (reference value: 29 +/- 5%); format: functional, cell-based
[31] = Cell cycle arrest in human AsPC1 cells assessed as accumulation at S phase at 75 uM after 24 hrs by flow cytometric method (reference value: 23 +/- 3%); format: functional, cell-based
[32] = Cell cycle arrest in human AsPC1 cells assessed as accumulation at G2/M phase at 75 uM after 24 hrs by flow cytometric method (reference value: 29 +/- 5%); format: functional, cell-based
[33] = Cell cycle arrest in human AsPC1 cells assessed as accumulation at G0/G1 phase at 100 uM after 24 hrs by flow cytometric method (reference value: 48 +/- 7%); format: functional, cell-based
[34] = Cell cycle arrest in human THP1 cells assessed as accumulation at S phase after 24 hrs by flow cytometric method; format: functional, cell-based; details: THP-1
[35] = Cell cycle arrest in human THP1 cells assessed as decrease in cell levels at G2/M phase after 24 hrs by flow cytometric method; format: functional, cell-based; details: THP-1
ASPC1 [36] = assay: Induction of pro-differentiation of human AsPC1 cells assessed as CD44 expression at 1 uM after 3 days by immunostaining-based micro-capillary flow cytometric method (reference value: 87 +/- 1%); format: functional

Molecule NC(=[Se])N/N=C/c1cccc2cccnc12 has an IC50 [1] of 12.5 µM, an Activity (THP-1 [2]) of 1.7% and an Activity (THP-1 [3]) of 2%. For the same molecule, the Activity (THP-1 [4]) was 1.1%, the Activity (THP-1 [5]) was 0.7% and the Activity (THP-1 [6]) was 3%. It also gave an Activity (THP-1 [7]) of 49%, an Activity (THP-1 [8]) of 4% and an Activity (THP-1 [9]) of 46%. The Activity (THP-1 [10]) was 4%, the Activity (ASPC1 [11]) was 0.2% and the Activity (ASPC1 [12]) was 1.6%. For the same molecule, the Activity (ASPC1 [13]) was 1.9%, the Activity (ASPC1 [14]) was 4.1% and the Activity (ASPC1 [15]) was 26.5%. The Activity [16] was 22%, the Activity [17] was 34% and the Activity [18] was 26%. The Activity [19] was 31%, the Activity [20] was 43% and the Activity [21] was 27%. For the same molecule, the Activity [22] was 30%, the Activity [23] was 32% and the Activity [24] was 53.8%. The Activity [25] was 62%, the Activity [26] was 16.7% and the Activity [27] was 69.2%. It also gave an Activity [28] of 65.4%, an Activity [29] of 26% and an Activity [30] of 8.6%. The Activity [31] was 22.3%, the Activity [32] was 14.4% and the Activity [33] was 64.1%. For the same molecule, the Activity [34] was “Dose-dependent effect”, the Activity [35] was “Dose-dependent effect” and the Activity (ASPC1 [36]) was 53%.
